Experimental data: patent publication US20100093650A1, “Pharmaceutical Anit-Infective Composition for Inhalation” (LABORATORIES SMB S.A., priority 2006, published 2010)
One block for each molecule: values may come before it.

Tests used:
[1] = system: planktonic Pseudomonas aeruginosa; test: MIC on planktonic bacteria (NCCLS dilution method); format: cell-based
Method: (§1) PY O1: is a cystic Fibrosis clinical mucoid strain of Pseudomonas aeruginosa received from the Erasme Hospital, Brussels.
The determination of the minimal inhibitory concentration (MIC) is performed according to the standard of NCCLS (NCCLS, Methods for dilution Antimicrobial Susceptibility Tests for bacteria that grow aerobically; approved standards, sixth edition, M7-A6, vol. 23 no.2, January 2003.

[2] = Particle size by laser diffraction; format: physicochemical; settings: micronized, measured by laser diffraction
Description: A dry powder composition for inhalation of tobramycin and clarithromycin was formulated using micronized tobramycin supplied by Teva Plantex (Israel). Clarithromycin was supplied by Teva Plantex (Israel) in a non-micronized form. Clarithromycin was then micronized using the micronizer MC-one® (JetpHarma, Switerland). […] The micronisation parameters were a pressure of 10 bars in the Venturi, a pressure of 8 bars in the ring and a feeding rate of 5 g/minute. The mean particle size of the micronized clarithromycin obtained (measured by laser diffraction) was 1.6 μm.

[3] = In vitro lung deposition, Multistage Liquid Impinger (MLI); format: physicochemical; settings: for lung concentration per capsule: estimated from lung deposition with about 100 ml epithelial liquid in the lung, composition of example 6
Description: The amount of macrolide agent inhaled shall be high enough to affect, in some way, the biofilm. It has to be noted that as the effect of macrolide derivatives on the biofilm is mediated through a non-antibacterial mechanism. […] Nevertheless, it is a another object of the present invention to provide a composition containing high concentrations (or amounts) of each of the aminoglycoside derivative and of the macrolide derivative i.e. at least more than 10%, preferably more than 15%, and more preferably more than 20% of the dry powder composition. It is indeed particularly interesting to achieve high lung doses of those therapeutic agents with the minimum amounts of inhalations because it makes the administration easier and more importantly increase the patient's compliance. It also decreases the nominal dose of each active ingredient and thus the adverse effects linked to these actives. In the present invention, the dry powder inhaler also provides a high Fine Particle Dose (FPD) and Fine Particle […] (FPF) when tested in vitro on a Multistage Liquid Impinger (MLI, Eur. Pharm, 5th Edition, chapter 2.9.18). The FPD and FPF are the parameters that predict in vivo lung deposition.
The in vitro lung deposition test was performed using equipment and conditions as described in the European Pharmacopoeia (5th edition, chapter 2.9.18—apparatus C). This equipment consists of a Multistage Liquid Impinger (MLI) and was operated with an air flow of 100 L/min during a period of time of 2.4 seconds to simulate inhalation capabilities of patients. The quantification of the deposition of each drug on each stage of the MLI was performed by HPLC equipped with a a Corona detector.

[4] = system: 12 day biofilm of Pseudomonas aeruginosa; test: Bacterial count (CFU/ml) of 12-day biofilm after 24 hours with the products; format: cell-based; settings: for bacterial count in biofilm (CFU/ml × 10^7): 24 hours; for decrease of the number of CFU/ml of the 12-day biofilm versus the positive control: concentrations of Table 1 (tobramycin 4 μg/ml; clarithromycin 100, 200, 500 μg/ml; combinations)
Description: (§2) Biofilms of Pseudomonas aeruginosa—strain PY O1 were formed according to the methods described by Ceri et al, the calgary biofilm device: new technology for rapid determination of antibiotic susceptibilities of bacterial biofilms, Journal of clinical microbiology, pp. 1771-1776, 1999 and Abdi-Ali et al, bactericidal activity of various antibiotics against biofilm-producing Pseudomonas aeruginosa, International Journal of Antimicrobial Agents 27, 196-200, 2006.
as §1
After having shown that the number of Pseudomonas aeruginosa within the biofilms was stable after 12 days, the products listed in Table 1 were added to the media for the duration of 24 hours. Thereafter the biofilm was rinsed three times with a 0.01 M phosphate buffer adjusted at pH 7.5 in order to remove all cells not bound to the biofilm. The microplate was then placed on ultrasonic bath at 35° C. for 5 minutes to allow the bacteria present in the biofilm to separate from such biofilm. A bacterial count was then performed (number of coloning forming unit CFU/ml). Each experience was done twice and the CFU counting was also repeated twice/experience.

[5] = system: 12 day old Pseudomonas aeruginosa biofilm; test: MIC on 12 day old biofilm; format: cell-based
Description: as §2, §1
In a second experiment using the same modus operandi as above, we measured the MIC of Tobramycin on a 12 day old Pseudomonas aeruginosa biofilm. This situation is much closer to the situation observed in vivo in chronic respiratory diseases like Cystic Fibrosis.

[6] = MLI1, example 6 capsule 10 mg/10 mg, MLI 100 L/min
[7] = MLI2, example 6 capsule 10 mg/10 mg, MLI 100 L/min
[8] = MLI3, example 6 capsule 10 mg/10 mg, MLI 100 L/min
[9] = Mean (n = 3), example 6 capsule 10 mg/10 mg, MLI 100 L/min
[10] = composition of example 6, MLI 100 L/min

sensitivity of the bacterium (MIC could not be determined) [1]: not sensitive | mean particle size [2]: 1.6 μm | Device deposition [3, 6]: 1.155 mg | FPD [3, 6]: 3.14 mg | FPF [3, 6]: 31.4% | Filter deposition [3, 6]: 0.478 mg | Stage 1 deposition [3, 6]: 1.338 mg | Stage 2 deposition [3, 6]: 0.664 mg | Stage 3 deposition [3, 6]: 1.715 mg | Stage 4 deposition [3, 6]: 1.162 mg | Throat deposition [3, 6]: 1.025 mg | Device deposition [3, 7]: 1.048 mg | FPD [3, 7]: 3.76 mg | FPF [3, 7]: 37.6% | Filter deposition [3, 7]: 0.598 mg | Stage 1 deposition [3, 7]: 1.566 mg | Stage 2 deposition [3, 7]: 0.845 mg | Stage 3 deposition [3, 7]: 1.891 mg | Stage 4 deposition [3, 7]: 1.482 mg | Throat deposition [3, 7]: 1.134 mg | Device deposition [3, 8]: 1.433 mg | FPD [3, 8]: 3.98 mg | FPF [3, 8]: 39.9% | Filter deposition [3, 8]: 0.574 mg | Stage 1 deposition [3, 8]: 1.352 mg | Stage 2 deposition [3, 8]: 0.680 mg | Stage 3 deposition [3, 8]: 2.078 mg | Stage 4 deposition [3, 8]: 1.533 mg | Throat deposition [3, 8]: 1.223 mg | Device deposition [3, 9]: 1.212 mg | FPD [3, 9]: 3.63 mg | FPF [3, 9]: 36.3% | Filter deposition [3, 9]: 0.550 mg | Stage 1 deposition [3, 9]: 1.419 mg | Stage 2 deposition [3, 9]: 0.729 mg | Stage 3 deposition [3, 9]: 1.895 mg | Stage 4 deposition [3, 9]: 1.392 mg | Throat deposition [3, 9]: 1.127 mg | FPD/capsule [3, 10]: 3.63 mg | FPF [3, 10]: 36.3% | lung concentration per capsule [3]: 36.3 µg/mL
Compound: CC[C@H]1OC(=O)[C@H](C)[C@@H](O[C@H]2C[C@@](C)(OC)[C@@H](O)[C@H](C)O2)[C@H](C)[C@@H](O[C@@H]2O[C@H](C)C[C@H](N(C)C)[C@H]2O)[C@](C)(OC)C[C@@H](C)C(=O)[C@H](C)[C@@H](O)[C@]1(C)O [Clarithromycin]
bacterial count in biofilm (CFU/ml × 10^7) ([4]; C 100 μg/ml, 12 day biofilm): 14 CFU × 10^7 | bacterial count in biofilm (CFU/ml × 10^7) ([4]; C 200 μg/ml, 12 day biofilm): 10 CFU × 10^7 | bacterial count in biofilm (CFU/ml × 10^7) ([4]; C 500 μg/ml, 12 day biofilm): 7 CFU × 10^7 | decrease of the number of CFU/ml of the 12-day biofilm versus the positive control [4]: neither tobramycin 4 μg/ml nor clarithromycin at 100, 200 and 500 μg/ml alone are able to decrease the number of CFU/m1

activity (MIC) on 12 day old biofilm [5]: no longer active | Device deposition [3, 6]: 1.035 mg | FPD [3, 6]: 3.60 mg | FPF [3, 6]: 36% | Filter deposition [3, 6]: 0.664 mg | Stage 1 deposition [3, 6]: 1.760 mg | Stage 2 deposition [3, 6]: 0.614 mg | Stage 3 deposition [3, 6]: 1.512 mg | Stage 4 deposition [3, 6]: 1.598 mg | Throat deposition [3, 6]: 0.929 mg | Device deposition [3, 7]: 0.938 mg | FPD [3, 7]: 4.45 mg | FPF [3, 7]: 44.5% | Filter deposition [3, 7]: 0.838 mg | Stage 1 deposition [3, 7]: 1.837 mg | Stage 2 deposition [3, 7]: 0.726 mg | Stage 3 deposition [3, 7]: 1.818 mg | Stage 4 deposition [3, 7]: 1.965 mg | Throat deposition [3, 7]: 0.859 mg | Device deposition [3, 8]: 1.272 mg | FPD [3, 8]: 4.72 mg | FPF [3, 8]: 47.2% | Filter deposition [3, 8]: 0.778 mg | Stage 1 deposition [3, 8]: 1.546 mg | Stage 2 deposition [3, 8]: 0.606 mg | Stage 3 deposition [3, 8]: 1.895 mg | Stage 4 deposition [3, 8]: 2.202 mg | Throat deposition [3, 8]: 0.771 mg | Device deposition [3, 9]: 1.082 mg | FPD [3, 9]: 4.26 mg | FPF [3, 9]: 42.5% | Filter deposition [3, 9]: 0.760 mg | Stage 1 deposition [3, 9]: 1.714 mg | Stage 2 deposition [3, 9]: 0.648 mg | Stage 3 deposition [3, 9]: 1.742 mg | Stage 4 deposition [3, 9]: 1.922 mg | Throat deposition [3, 9]: 0.853 mg | FPD/capsule [3, 10]: 4.26 mg | FPF [3, 10]: 42.5% | lung concentration per capsule [3]: 42.6 µg/mL
Compound: NC[C@H]1O[C@H](O[C@H]2[C@H](O)[C@@H](O[C@H]3O[C@H](CO)[C@@H](O)[C@H](N)[C@H]3O)[C@H](N)C[C@@H]2N)[C@H](N)C[C@@H]1O [Tobramycin]
bacterial count in biofilm (CFU/ml × 10^7) ([4]; T 4 μg/ml, 12 day biofilm): 25 CFU × 10^7 | decrease of the number of CFU/ml of the 12-day biofilm versus the positive control [4]: neither tobramycin 4 μg/ml nor clarithromycin at 100, 200 and 500 μg/ml alone are able to decrease the number of CFU/m1 | number of CFU/ml ([4]; tobramycin alone at 4 μg/ml, 12 day biofilm): around 2.5×10^8 CFU/ml
